Patent US4987258A, “4,4'-diaminodiphenyl compounds, process for their preparation and their use” (Hoechst Aktiengesellschaft, priority 1987, dated 1991)

Test system: Salmonella typhimurium (strains TA 98, TA 100, TA 1535, TA 1537, TA 1538)
Experiment: Ames mutagenicity test with Salmonella typhimurium in the absence and presence of S-9-mix
Assay type: cell-based
Details: not given
Experimental: The examples below will describe the invention in more detail. The mutagenicity test was carried out, following Ames, with Salmonella typhimurium (strains TA 98, TA 100, TA 1535, TA 1537, TA 1538) in the absence and presence of S-9-mix (B. N. Ames et al., Mut. Res. Vol. 31, p. 347-364 (1975)).

SMILES	Ames test
CCCOc1cc(-c2ccc(N)c(OCCC)c2)ccc1N [Example 8]	negative
CCCc1cc(-c2ccc(N)c(CCC)c2)ccc1N [Example 4]	negative
CCC(C)Oc1cc(-c2ccc(N)c(OC(C)CC)c2)ccc1N (stereo not shown) [Example 10]	negative
CCCCc1cc(-c2ccc(N)c(CCCC)c2)ccc1N [Example 5]	negative
CC(C)Oc1cc(-c2ccc(N)c(OC(C)C)c2)ccc1N [Example 9]	negative
CC(C)Cc1cc(-c2ccc(N)c(CC(C)C)c2)ccc1N [Example 6]	negative
CCC(C)c1cc(-c2ccc(N)c(C(C)CC)c2)ccc1N (stereo not shown)	negative

Same assay, conditions: Examples 1-3

SMILES	Ames mutagenicity test
COCCOc1cc(-c2ccc(N)c(OCCOC)c2)ccc1N [Example 3, 3,3'-di(2-methoxyethoxy)-benzidine]	negative
CC(C)COc1cc(-c2ccc(N)c(OCC(C)C)c2)ccc1N [Example 2, 3,3'-diisobutoxybenzidine]	negative
CC(C)c1cc(-c2ccc(N)c(C(C)C)c2)ccc1N [Example 1, 3,3-diisopropylbenzidine dichlorohydrate]	negative
